Molecules are shown by their SMILES.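 All cell lines were grown in 96-well plates and treated with compound for 48 hours. The concentration for full growth arrest is given as TGI.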 Bounds are passed on as bounds.

These results are taken from PubChem BioAssay (NCI).

Among the test systems are UACC-62 melanoma; HL-60(TB) leukemia; CCRF-CEM leukemia; T-47D breast; HCC-2998 colon; TK-10 renal; IGROV1 ovarian; UACC-257 melanoma; HOP-92 NSCLC; SK-MEL-2 melanoma.
What all share (test): DTP human tumour cell line panel, 48 h

As usually defined, the TGI is the concentration giving total growth inhibition. Regarding `Cc1ccc2[nH]c3c(c2c1)C1CCC(C(C)(C)C)CC1C1C(=O)N(c2ccc(Oc4ccccc4)cc2)C(=O)C31` (stereo not given), the TGI in the assay on UACC-62 melanoma is above 100 µM; in the assay on HL-60(TB) leukemia, 8.09 µM; in the assay with CCRF-CEM leukemia, 8.26 µM; in the assay with T-47D breast it was above 68.2 µM; in the assay with HCC-2998 colon it was above 100 µM; in the assay with TK-10 renal, 84.4 µM. Further, the TGI with IGROV1 ovarian is above 100 µM; in the assay with UACC-257 melanoma, above 100 µM; in the assay with HOP-92 NSCLC, 45.7 µM; in the assay on SK-MEL-2 melanoma, above 100 µM.
